The source of these data is ChEMBL document CHEMBL1158111, “Bohemamines from a marine-derived Streptomyces sp” (J Nat Prod, 2006).

Activity calls are given as the source filed them. The rule behind the calls is not given here.

For the test, the system named is HCT-116. Kind of test: Growth inhibition of human HCT116 cells. The test is classed as functional, cell-based.
Consider `CC(C)=CC(=O)NC1=CC(=O)[C@]2(C)C[C@H](O)[C@H](C)N12`, for which the result was inactive.

Regarding `CC(C)=CC(=O)NC1=CC(=O)[C@]2(C)[C@H](O)[C@@H](Cl)[C@H](C)N12`, the outcome was inactive.

For the compound `CC(C)=CC(=O)NC1=CC(=O)[C@]2(C)[C@@H]3O[C@@H]3[C@H](C)N12`, the outcome was inactive.

For the compound `CC(C)=CC(=O)NC1=CC(=O)[C@]2(C)[C@H](O)C[C@H](C)N12`, the outcome was inactive.
